Data: patent US20240400560A1, “BICYCLIC HETEROCYCLIC DERIVATIVE HAVING VIRAL GROWTH INHIBITORY ACTIVITY AND PHARMACEUTICAL COMPOSITION CONTAINING SAME” (Shionogi & Co., Ltd., priority 2021, published 2024)
Like-named read-outs stand apart in the source and are kept apart here.

What was measured:
[1] = molecular target: SARS-CoV-2 3CL protease (Severe acute respiratory syndrome coronavirus 2, UniProt P0DTD1); assay: Inhibitory activity test against SARS-CoV-2 3CL proteases; format: biochemical
[2] = test system: SARS-CoV-2; assay: Inhibitory activity of cytopathic effect (CPE) in HEK293T/ACE2-TMPRSS2 cells; format: cell-based; conditions: Severe acute respiratory syndrome coronavirus 2, HEK-293T, 72 h
[3] = read-out: IC50 (50% SARS-CoV-2 3CL protease inhibitory concentration)
[4] = 50% SARS-CoV-2 infected cell death inhibitory concentration, HEK293T/ACE2-TMPRSS2 cells, CellTiter-Glo 2.0 after 3 days culture, read-out: EC50
[5] = HEK293T/ACE2-TMPRSS2 cells, cultured 3 days, CellTiter-Glo 2.0 luminescence, read-out: EC50 (50% SARS-CoV-2 infected cell death inhibitory concentration)
[6] = IC50 (50% SARS-CoV-2 3CL protease inhibitory concentration)

| Structure (SMILES) | IC50 [1, 3] [nM] | EC50 [2, 4] [nM] | EC50 [2, 5] [nM] | also measured |
| --- | --- | --- | --- | --- |
| CCNC(=O)[C@@H]1CCN(c2cc3c(c(OC)n2)c(=O)n(-c2cnc4cc(F)ccn24)c(=O)n3-c2ccc(F)c(Cl)c2)C1 [Compound I-0626] | 14 | 55.2 |  |  |
| COc1nc(N2CC[C@@H](C#N)C2)cc2c1c(=O)n(-c1cnc3cc(F)ccn13)c(=O)n2-c1ccc(F)c(Cl)c1 [Compound I-0652] | 1.4 | 7.43 |  |  |
| CCNc1cc2c(c(OC)n1)c(=O)n(-c1cnc3cc(F)ccn13)c(=O)n2-c1ccc(F)c(Cl)c1 [Compound I-0996] | < 100 |  | < 100 |  |
| COC[C@@H](C)Nc1cc2c(c(OC)n1)c(=O)n(-c1cnc3cc(F)ccn13)c(=O)n2-c1ccc(F)c(Cl)c1 [Compound I-1061] | < 100 |  | < 100 |  |
| O=c1c2c(=O)n(-c3cnc4cc(F)ccn34)c(=O)n(-c3ccc(F)c(Cl)c3)c2cc2n1CC[C@@H]1CCCN21 [Compound I-0955] | 3.1 | 540 |  |  |
| COc1nc(N2C[C@@H]3C[C@H]2CO3)cc2c1c(=O)n(-c1cnc3cc(F)ccn13)c(=O)n2-c1ccc(F)c(Cl)c1 [Compound I-0943] | < 100 |  | < 100 |  |
| COc1cc(N2CCCC2)cc2c1c(=O)n(Cc1ncn(C)n1)c(=O)n2Cc1cc(Cl)ccc1Br [Compound I-0786] | < 100 |  | 100 to 1000 |  |
| COc1nc(N2CC[C@@H](OC)C2)cc2c1c(=O)n(-c1cncc(Cl)c1)c(=O)n2-c1ccc(F)c(Cl)c1 [Compound I-0744] | 1.4 | 6.94 |  |  |
| COc1nc2c(=O)n(Cc3ncn(C)n3)c(=O)n(Cc3cc(Cl)c(F)cc3Cl)c2cc1-c1cc(C#N)ccc1Cl [Compound I-0551] | < 100 |  | < 100 |  |
| COc1cc(-c2cc3cc[nH]c3cc2Cl)cc2c1c(=O)n(Cc1ncn(C)n1)c(=O)n2Cc1cc(F)c(F)c(F)c1 [Compound I-0901] | < 100 |  | < 100 |  |
| COc1nc2c(=O)n(Cc3ncn(C)n3)c(=O)n(Cc3cc(F)c(F)c(Cl)c3)c2cc1-c1nc(C(F)F)ccc1Cl [Compound I-0879] | < 100 |  | < 100 |  |
| COc1nc(C2CCOCC2)cc2c1c(=O)n(-c1cnc3cc(F)ccn13)c(=O)n2-c1ccc(F)c(Cl)c1 [Compound I-1021] | 12 | 16.1 |  |  |
| COc1nc(C2=CCOCC2)cc2c1c(=O)n(-c1cnc3cc(F)ccn13)c(=O)n2-c1ccc(F)c(Cl)c1 [Compound I-1016] | < 100 |  | < 100 |  |
| Cn1c(-c2cc(C#N)ccc2Cl)cc2c(c1=O)c(=O)n(-c1cnc3ccc(Cl)cn13)c(=O)n2Cc1cc(F)c(F)c(F)c1 [Compound I-0741] | 4.3 | 105 |  |  |
| COc1nc(-c2c(Cl)ccc3c2CCN(C)C3=O)cc2c1c(=O)n(Cc1ncn(C)n1)c(=O)n2Cc1cc(F)c(F)c(Cl)c1 [Compound I-0874] | 9.4 | 39.2 |  |  |
| COc1nc(N2[C@@H]3CCC[C@H]2CNC3)cc2c1c(=O)n(-c1cnc3ccccn13)c(=O)n2Cc1cc(F)c(F)c(Cl)c1 [Compound I-0648] |  |  |  | IC50 [1, 6]: < 100 nM; EC50 ([2]; read-out: EC50 (50% SARS-CoV-2 infected cell death inhibitory concentration)): < 100 nM |
| COc1nc(N2C[C@H]3COC[C@H]3C2)cc2c1c(=O)n(-c1cnc3cc(F)ccn13)c(=O)n2-c1ccc(F)c(Cl)c1 [Compound I-0985] | < 100 |  | < 100 |  |
| COc1nc(N2CC(C#N)C2)cc2c1c(=O)n(-c1cnc3cc(F)ccn13)c(=O)n2-c1ccc(F)c(Cl)c1 [Compound I-1017] | < 100 |  | < 100 |  |
| O=c1c2c(=O)n(-c3cnc4cc(F)ccn34)c(=O)n(-c3ccc(F)c(Cl)c3)c2cc2n1C[C@@H]1CCCCN21 [Compound I-0988] | < 100 |  | 100 to 1000 |  |
| COc1nc(N2CC[C@@H](CO)C2)cc2c1c(=O)n(-c1cncc(Cl)c1)c(=O)n2-c1ccc(F)c(Cl)c1 [Compound I-0969] | < 100 |  | < 100 |  |
| COc1nc(N2CC[C@@H](OC)C2)cc2c1c(=O)n(-c1cnc3cc(F)ccn13)c(=O)n2Cc1cc(F)c(F)c(F)c1 [Compound I-0731] | < 100 |  | < 100 |  |
| COCCN(C)c1cc2c(c(OC)n1)c(=O)n(-c1cnc3cc(F)ccn13)c(=O)n2-c1ccc(F)c(Cl)c1 [Compound I-0653] | 14 | 11.6 |  |  |
| COc1nc(N2C[C@@H]3C[C@H]2CO3)cc2c1c(=O)n(-c1cncc(C#N)c1)c(=O)n2-c1ccc(F)c(F)c1 [Compound I-0991] | < 100 |  | < 100 |  |
| COc1nc(N2CCC(F)(F)C2)cc2c1c(=O)n(-c1cncc(F)c1)c(=O)n2-c1ccc(F)c(Cl)c1 [Compound I-0998] | < 100 |  | < 100 |  |
| COc1nc(N2CCC2)cc2c1c(=O)n(-c1cnc3cc(F)ccn13)c(=O)n2-c1ccc(F)c(Cl)c1 [Compound I-1002] | < 100 |  | < 100 |  |

| Structure (SMILES) | IC50 [1, 3] [nM] | EC50 [2, 4] [nM] | EC50 [2, 5] [nM] | also measured |
| --- | --- | --- | --- | --- |
| COc1cc(-c2c(Cl)ccc3c2CCC(=O)N3C)cc2c1c(=O)n(Cc1ncn(C)n1)c(=O)n2Cc1cc(F)c(F)c(F)c1 [Compound I-0868] | 1.6 | 21.4 |  |  |
| Cn1cnc(Cn2c(=O)c3c(=O)n(C)c(N4C[C@@H]5CC[C@H]4C5)cc3n(Cc3cc(F)c(F)c(Cl)c3)c2=O)n1 [Compound I-0930] | < 100 |  | 100 to 1000 |  |
| O=c1c2c(=O)n(-c3cnc4cc(F)ccn34)c(=O)n(-c3ccc(F)c(Cl)c3)c2cc2n1C[C@@H]1CCCN21 [Compound I-0628] | 26 | 661 |  |  |
| COc1cc(-c2cc(C#N)ccc2Br)cc2c1c(=O)n(Cc1ncn(C)n1)c(=O)n2Cc1cc(F)c(F)c(F)c1 [Compound I-0891] | 10 | 12.1 |  |  |
| COc1nc(N2CCC(F)(F)C2)cc2c1c(=O)n(-c1cnc3ccc(C#N)cn13)c(=O)n2-c1ccc(F)c(Cl)c1 [Compound I-0654] | < 100 |  | < 100 |  |
| COc1nc(NCC(F)(F)F)cc2c1c(=O)n(-c1cnc3cc(F)ccn13)c(=O)n2-c1ccc(F)c(Cl)c1 [Compound I-1041] | < 100 |  | < 100 |  |
| Cn1cnc(Cn2c(=O)c3c4c(c(-c5ncc(F)cc5Cl)cc3n(Cc3cc(F)c(F)c(Cl)c3)c2=O)CCO4)n1 [Compound I-0561] | < 100 |  | < 100 |  |
| COc1nc(N2CC[C@@H](C#N)C2)cc2c1c(=O)n(-c1cncc(Cl)c1)c(=O)n2-c1ccc(F)c(Cl)c1 [Compound I-0936] | 1.1 | 5.34 |  |  |
| Cn1cnc(Cn2c(=O)c3c4nccnc4c(-c4cc(C#N)ccc4Cl)cc3n(Cc3cc(F)c(F)c(Cl)c3)c2=O)n1 [Compound I-0809] | < 100 |  | < 100 |  |
| COc1nc(-c2cc(C#N)ccc2Cl)cc2c1c(=O)n(-c1cnc3ccccn13)c(=O)n2Cc1ccc(F)c(C#N)c1 [Compound I-0842] | 34 | 88.2 |  |  |
| CC(C)Nc1cc2c(c(=O)n(Cc3ncn(C)n3)c(=O)n2Cc2cc(F)c(F)c(Cl)c2)c2nccnc12 [Compound I-0575] | < 100 |  | < 100 |  |
| COc1nc(N2C[C@@H](F)[C@@H](F)C2)cc2c1c(=O)n(-c1cnc3cc(F)ccn13)c(=O)n2-c1ccc(F)c(C(F)F)c1 [Compound I-0961] | 3.4 | 5.82 |  |  |
| COc1nc(N2CC[C@@H](OC(F)F)C2)cc2c1c(=O)n(-c1cnc3cc(F)ccn13)c(=O)n2-c1ccc(F)c(Cl)c1 [Compound I-0763] | < 100 |  | < 100 |  |
| COc1nc(N2CC[C@@H](C(C)(C)O)C2)cc2c1c(=O)n(-c1cncc(Cl)c1)c(=O)n2-c1ccc(F)c(Cl)c1 [Compound I-1059] | < 100 |  | < 100 |  |
| CCOc1nc2c(=O)n(Cc3ncn(C)n3)c(=O)n(Cc3cc(F)c(F)c(F)c3)c2cc1-c1cc(C#N)ccc1Cl [Compound I-0692] | < 100 |  | < 100 |  |
| [2H]C([2H])([2H])O[C@@H]1CCN(c2cc3c(c(OC)n2)c(=O)n(-c2cnc4cc(F)ccn24)c(=O)n3-c2ccc(F)c(F)c2)C1 [Compound I-1005] | 8.9 | 8.65 |  |  |
| [2H]C([2H])([2H])O[C@@H]1CCN(c2cc3c(c(OC)n2)c(=O)n(-c2cncc(C#N)c2)c(=O)n3-c2ccc(F)c(Cl)c2)C1 [Compound I-0948] | < 100 |  | < 100 |  |
| COc1ccc(Cl)c(-c2cc3c(nc2OC)c(=O)n(Cc2ncn(C)n2)c(=O)n3Cc2cc(F)c(F)c(Cl)c2)n1 [Compound I-0820] | < 100 |  | < 100 |  |
| COc1nc2c(=O)n(Cc3ncn(C)n3)c(=O)n(Cc3cc(Cl)ccc3C)c2cc1-c1cc(C#N)ccc1Cl [Compound I-0717] | < 100 |  | < 100 |  |
| COc1nc(N2[C@@H]3COC[C@H]2C3)cc2c1c(=O)n(-c1cnc3cc(F)ccn13)c(=O)n2-c1ccc(F)c(Cl)c1 [Compound I-0755] |  |  |  | IC50 [1, 6]: 5.6 nM; EC50 [2]: 7.06 nM |
| CNC(=O)c1nc(-c2cc3c(nc2OC)c(=O)n(Cc2ncn(C)n2)c(=O)n3Cc2cc(F)c(F)c(Cl)c2)c(Cl)cc1F [Compound I-0881] | < 100 |  | < 100 |  |
| COc1cc(-c2cc(P(C)(C)=O)ccc2Cl)cc2c1c(=O)n(Cc1ncn(C)n1)c(=O)n2Cc1cc(F)c(F)c(F)c1 [Compound I-0893] | 36 | 2330 |  |  |
| COc1cc(-c2c(Cl)ccc3c2CC(=O)N3C)cc2c1c(=O)n(Cc1ncn(C)n1)c(=O)n2Cc1cc(F)c(F)c(F)c1 [Compound I-0869] | < 100 |  | < 100 |  |
| CCn1cnc(Cn2c(=O)c3c(OC)nc(N4CC[C@@H](F)C4)cc3n(Cc3cc(F)c(F)c(F)c3)c2=O)n1 [Compound I-0927] | < 100 |  | < 100 |  |
| COc1nc2c(=O)n(Cc3ncn(C)n3)c(=O)n(Cc3cc(F)c(F)c(F)c3)c2cc1-c1cc(C#N)ccc1Cl [Compound I-0699] | < 100 |  | < 100 |  |
